This note sets out measurements from patent US6773912B1, “Lantibiotic” (University of Otago, priority 1999, dated 2004).

Holding throughout (assay type): cell-based
Assay [1] relates to Streptococcus pyogenes strain FF22. Kind of assay: Decrease in colony-forming units after mixing cells with salivaricin preparation. The settings on record: partially purified preparation of titre 16; 4 h at 37° C.; exponential Todd Hewitt broth culture cells. The method, then: The inhibitory activity of the salivaricins was determined by measurement of the decrease with time in the number of colony-forming units (CFU) of a suspension of the sensitive indicator streptococcus (Streptococcus pyogenes strain FF22) after mixing the cells with a salivaricin preparation. Twice-washed cells from an exponential Todd Hewitt broth culture of the indicator streptococcus were resuspended in 0.067 M phosphate buffer (pH 6.5) to the original culture volume. Portions of partially purified salivaricin (titre 16 Au/ml) or of phosphate buffer (control) were then mixed with an equal volume of the washed cell suspension and incubation was continued at 37° C. Survivors were determined at intervals by plating suitable 10-fold dilutions (in cold Todd Hewitt broth) of the test and control mixtures on Columbia agar base and incubating at 37° C. for 24 h. Viable counts were expressed as the total number of CFU per ml.

For assay [2], the system named is Branhamella catarrhalis. Kind of assay: Agar surface assay, inhibitory spectrum. The following applies: 1 tested; 20 ul drops of preparation of titre 16 Ua/ml; 37° C. for 18 h. The method, then: (§1) Salivaricin activity is titrated using an agar surface assay. Drops (20 ul) of two-fold saline dilutions of the sample are assayed against Microoccus luteus T-18 on Columbia agar base. The reciprocal of the highest dilution to produce a definite zone of inhibition of the growth of the indicator lawn is the titre in arbitrary units per ml (Au/ml) of salivaricin activity.
(§2) By contrast the partially purified preparation of salivaricin A2 of titre 16 when tested using under the same conditions killed less than 10% of strain FF22 cells. Further tests of the inhibitory spectra of partially purified salivaricin A2 and salivaricin B preparations were done by using the agar surface assay described above. Drops (20 ul) of a preparation of titre 16 Ua/ml were spotted onto lawn cultures of the test strains that had been freshly inoculated by swabbing the surface of a Columbia agar base plate with a 1/100 dilution in saline of an 18 h Todd Hewitt broth culture of that strain. Production of a definite zone of inhibited test strain growth upon incubation of these plates at 37° C. for 18 h was taken to indicate sensitivity of that strain to the salivaricin.

Assay [3] relates to Corynebacterium diphtheriae. Briefly: Agar surface assay, inhibitory spectrum. The settings on record: 4 tested; 20 ul drops of preparation of titre 16 Ua/ml; 37° C. for 18 h. The method, then:
as §1, §2

In assay [4] the test system is Escherichia coli. Kind of assay: Agar surface assay, inhibitory spectrum. The following applies: 2 tested; 20 ul drops of preparation of titre 16 Ua/ml; 37° C. for 18 h. The procedure: as §1, §2
The subject of assay [5] is Lactobactillus casei. Briefly: Agar surface assay, inhibitory spectrum. The following applies: 2 tested; 20 ul drops of preparation of titre 16 Ua/ml; 37° C. for 18 h. The method, then: as §1, §2
In assay [6] the test system is Staphylococcus aureus. Briefly: Agar surface assay, inhibitory spectrum. The following applies: 4 tested; 20 ul drops of preparation of titre 16 Ua/ml; 37° C. for 18 h. The method, then: as §1, §2
Assay [7] concerns Stomatococcus mucilagenosus. Briefly: Agar surface assay, inhibitory spectrum. The settings on record: 4 tested; 20 ul drops of preparation of titre 16 Ua/ml; 37° C. for 18 h. The method, then: as §1, §2
Assay [8] concerns Streptococcus agalactiae. Briefly: Agar surface assay, inhibitory spectrum. The following applies: 5 tested; 20 ul drops of preparation of titre 16 Ua/ml; 37° C. for 18 h. The method, then: as §1, §2
Assay [9] relates to Streptococcus equisimilis. Briefly: Agar surface assay, inhibitory spectrum. The settings on record: 5 tested; 20 ul drops of preparation of titre 16 Ua/ml; 37° C. for 18 h. The procedure:
as §1, §2

Assay [10] relates to Streptococcus mutans. Briefly: Agar surface assay, inhibitory spectrum. The following applies: 6 tested; 20 ul drops of preparation of titre 16 Ua/ml; 37° C. for 18 h. The procedure: as §1, §2
The subject of assay [11] is Streptococcus pneumoniae. Briefly: Agar surface assay, inhibitory spectrum. The following applies: 4 tested; 20 ul drops of preparation of titre 16 Ua/ml; 37° C. for 18 h. The method, then:
as §1, §2

Assay [12] deals with Streptococcus pyogenes. Kind of assay: Agar surface assay, inhibitory spectrum. The settings on record: 15 tested; 20 ul drops of preparation of titre 16 Ua/ml; 37° C. for 18 h. The method, then:
as §1, §2

In assay [13] the test system is Streptococcus sanguis. Briefly: Agar surface assay, inhibitory spectrum. The following applies: 6 tested; 20 ul drops of preparation of titre 16 Ua/ml; 37° C. for 18 h. The procedure: as §1, §2
Assay [14] concerns Streptococcus sobrinus. Kind of assay: Agar surface assay, inhibitory spectrum. The settings on record: 4 tested; 20 ul drops of preparation of titre 16 Ua/ml; 37° C. for 18 h. The method, then: as §1, §2

For the substance “salivaricin A2: BLIS co-expressed by S. salivarius K12 and K30, related but not identical to salivaricin A; sequence in FIG. 3 (KRGTGWFATITDDCPNSVFVCC; listed as Streptococcus salivarius)”, the CFU killed result in [1] is listed as “less than 10%”. Besides, the “Number of strains sensitive” value in assay [2] was 0; in assay [3], 0; in assay [4] it was 0; in assay [5] it was 1; in assay [6], 0; in assay [7], 0. The “Number of strains sensitive” value in [8] is recorded as 0; in assay [9] it was 5; in [10] it was 0; in assay [11] it was 1; in assay [12], 15; in assay [13], 0. For the same substance, the “Number of strains sensitive” value in [14] is on record as 0.
